Experimental data published in patent publication US11091488B2 (MISSION THERAPEUTICS LIMITED, priority 2015, dated 2021).

Target: USP30 (Homo sapiens (Human), UniProt Q70CQ3)
Assay: USP30 biochemical IC50 assay
Details: read-out: IC50 range; fluorescence polarisation, TAMRA labelled peptide linked to ubiquitin; 30 min pre-incubation, read after 2 hr
Description: USP30 Biochemical IC50 Assay
Dilution plates were prepared at 21 times the final concentration (2100 μM for a final concentration of 100 μM) in 50% DMSO in a 96-well polypropylene V-bottom plate (Greiner #651201). A typical 8-point dilution series to be 100, 30, 10, 3, 1, 0.3, 0.1, 0.03 μM final. Reactions were performed in duplicate in black 384 well plates (small volume, Greiner 784076) in a final reaction volume of 21 μl. Either 1 μl of 50% DMSO or diluted compound was added to the plate. USP30 was diluted in reaction buffer (40 mM Tris, pH 7.5, 0.005% Tween 20, 0.5 mg/ml BSA, 5 mM—beta-mercaptoethanol) to the equivalent of 0.05 μl/well and 10 μl of diluted USP30 was added to the compound. Enzyme and compound were incubated for 30 min at room temp. Reactions were initiated by the addition of 50 nM of TAMRA labelled peptide linked to ubiquitin via an iso-peptide bond as fluorescence polarisation substrate. Reactions were read immediately after addition of substrate and following a 2 hr incubation at room temperature. Readings were performed on a Pherastar Plus (BMG Labtech). λ Excitation 540 nm; λ Emission 590 nm.

Sequence of USP30 (Q70CQ3 57-517): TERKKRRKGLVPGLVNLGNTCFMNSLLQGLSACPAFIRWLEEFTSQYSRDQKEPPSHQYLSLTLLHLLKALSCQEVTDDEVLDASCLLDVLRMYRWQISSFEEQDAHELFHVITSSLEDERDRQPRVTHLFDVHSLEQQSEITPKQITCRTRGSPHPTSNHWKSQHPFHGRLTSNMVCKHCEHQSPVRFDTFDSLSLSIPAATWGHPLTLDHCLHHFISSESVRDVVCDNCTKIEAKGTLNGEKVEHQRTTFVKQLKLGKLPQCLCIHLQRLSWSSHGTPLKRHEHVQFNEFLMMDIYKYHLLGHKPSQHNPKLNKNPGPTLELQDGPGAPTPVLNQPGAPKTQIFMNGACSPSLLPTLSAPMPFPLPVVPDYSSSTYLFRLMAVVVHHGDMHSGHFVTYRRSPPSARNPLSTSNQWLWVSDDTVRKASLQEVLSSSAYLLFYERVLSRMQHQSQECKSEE

**Q.** Which IC50 does the source give for `N#CN1CC[C@H](N2CCN(c3cccc(-c4ccno4)c3)S2(=O)=O)C1` [Example 1, (S)-3-(5-(3-(isoxazol-5-yl)phenyl)-1,1-dioxido-1,2,5-thiadiazolidin-2-yl)pyrrolidine-1-carbonitrile] here?
**A.** 100 to 1000 nM

**Q.** For `CN1C(=O)COc2cc(N3CCN([C@@H]4CCN(C#N)C4)S3(=O)=O)ccc21` [Example 2, (R)-3-(5-(4-methyl-3-oxo-3,4-dihydro-2H-benzo[b][1,4]oxazin-7-yl)-1,1-dioxido-1,2,5-thiadiazolidin-2-yl)pyrrolidine-1-carbonitrile], which IC50 is on record?
**A.** < 100 nM

**Q.** For `N#CN1CC[C@@H](N2CCN(c3ccc4c(c3)OCC(=O)N4)S2(=O)=O)C1` [Example 3, (R)-3-(1,1-dioxido-5-(3-oxo-3,4-dihydro-2H-benzo[b][1,4]oxazin-7-yl)-1,2,5-thiadiazolidin-2-yl)pyrrolidine-1-carbonitrile], which IC50 is on record?
**A.** 100 to 1000 nM

**Q.** For `N#CN1CC[C@@H](N2CCN(c3ccc4c(c3)NC(=O)CO4)S2(=O)=O)C1` [Example 5, (R)-3-(1,1-dioxido-5-(3-oxo-3,4-dihydro-2H-benzo[b][1,4]oxazin-6-yl)-1,2,5-thiadiazolidin-2-yl)pyrrolidine-1-carbonitrile], which IC50 is on record?
**A.** < 100 nM

**Q.** Which IC50 does the source give for `N#CN1CC[C@@H](N2CCN(c3ccc4c(c3)N(CCO)C(=O)CO4)S2(=O)=O)C1` [Example 6, (R)-3-(5-(4-(2-hydroxyethyl)-3-oxo-3,4-dihydro-2H-benzo[b][1,4]oxazin-6-yl)-1,1-dioxido-1,2,5-thiadiazolidin-2-yl)pyrrolidine-1-carbonitrile] here?
**A.** 100 to 1000 nM

**Q.** `COc1ccc(N2CCN([C@@H]3CCN(C#N)C3)S2(=O)=O)cc1N1CCOCC1` [Example 8, (R)-3-(5-(4-methoxy-3-morpholinophenyl)-1,1-dioxido-1,2,5-thiadiazolidin-2-yl)pyrrolidine-1-carbonitrile] was tested. Which IC50 did it give?
**A.** 100 to 1000 nM

**Q.** For `N#CN1CC[C@@H](N2CCN(C3CCN(c4ccccn4)C3)S2(=O)=O)C1` (stereo partly drawn) [Example 9, (3R)-3-(1,1-dioxido-5-(1-(pyridin-2-yl)pyrrolidin-3-yl)-1,2,5-thiadiazolidin-2-yl)pyrrolidine-1-carbonitrile], which IC50 is on record?
**A.** 100 to 1000 nM

**Q.** Which IC50 does the source give for `COc1ccccc1-c1cccc(N2CCN([C@@H]3CCN(C#N)C3)S2(=O)=O)c1` [Example 10, (R)-3-(5-(2′-methoxy-[1,1′-biphenyl]-3-yl)-1,1-dioxido-1,2,5-thiadiazolidin-2-yl)pyrrolidine-1-carbonitrile] here?
**A.** < 100 nM

**Q.** Which IC50 does the source give for `N#CN1CC[C@@H](N2CCN(c3ccc(-c4ccccc4)cc3)S2(=O)=O)C1` [Example 11, (R)-3-(5-([1,1′-biphenyl]-4-yl)-1,1-dioxido-1,2,5-thiadiazolidin-2-yl)pyrrolidine-1-carbonitrile] here?
**A.** < 100 nM

**Q.** How did the IC50 turn out when `N#CN1CC[C@@H](N2CCCN(c3ccc(-c4ccccc4)cc3)S2(=O)=O)C1` [Example 12, (R)-3-(6-([1,1′-biphenyl]-4-yl)-1,1-dioxido-1,2,6-thiadiazinan-2-yl)pyrrolidine-1-carbonitrile] was run?
**A.** 100 to 1000 nM

**Q.** For `N#CN1CC[C@@H](N2CCN(c3cccc(-c4ccccc4)c3)S2(=O)=O)C1` [Example 13, (R)-3-(5-([1,1′-biphenyl]-3-yl)-1,1-dioxido-1,2,5-thiadiazolidin-2-yl)pyrrolidine-1-carbonitrile], which IC50 is on record?
**A.** < 100 nM

**Q.** With `N#CN1CC[C@@H](N2CCCN(c3cccc(-c4ccccc4)c3)S2(=O)=O)C1` [Example 14, (R)-3-(6-([1,1′-biphenyl]-3-yl)-1,1-dioxido-1,2,6-thiadiazinan-2-yl)pyrrolidine-1-carbonitrile] as the molecule, how does the IC50 read?
**A.** 100 to 1000 nM

**Q.** For `COc1ccc(-c2ccccc2)cc1N1CCN([C@@H]2CCN(C#N)C2)S1(=O)=O` [Example 15, (R)-3-(5-(4-methoxy-[1,1′-biphenyl]-3-yl)-1,1-dioxido-1,2,5-thiadiazolidin-2-yl)pyrrolidine-1-corbonitrile], which IC50 is on record?
**A.** < 100 nM

**Q.** `COc1cccc(-c2cccc(N3CCN([C@@H]4CCN(C#N)C4)S3(=O)=O)c2)c1` [Example 16, (R)-3-(5-(3′-methoxy-[1,1′-biphenyl]-3-yl)-1,1-dioxido-1,2,5-thiadiazolidin-2-yl)pyrrolidine-1-carbonitrile] was tested. Which IC50 did it give?
**A.** < 100 nM

**Q.** Which IC50 does the source give for `COc1ccccc1-c1ccc(N2CCN([C@@H]3CCN(C#N)C3)S2(=O)=O)cc1` [Example 17, (R)-3-(5-(2′-methoxy-[1,1′-biphenyl]-4-yl)-1,1-dioxido-1,2,5-thiadiazolidin-2-yl)pyrrolidine-l-carbonitrile] here?
**A.** < 100 nM

**Q.** How did the IC50 turn out when `N#CN1CC[C@@H](N2CCN(c3ccc(-c4ccncc4)cc3)S2(=O)=O)C1` [Example 18, (R)-3-(1,1-dioxido-5-(4-(pyridin-4-yl)phenyl)-1,2,5-thiadiazolidin-2-yl)pyrrolidine-1-carbonitrile] was run?
**A.** < 100 nM

**Q.** `N#CN1CC[C@@H](N2CCN(c3cccc(-c4ccncc4)c3)S2(=O)=O)C1` [Example 19, (R)-3-(1,1-dioxido-5-(3-(pyridin-4-yl)phenyl)-1,2,5-thiadiazolidin-2-yl)pyrrolidine-1-carbonitrile] was tested. Which IC50 did it give?
**A.** < 100 nM

**Q.** For `Cn1cc(-c2cccc(N3CCN([C@@H]4CCN(C#N)C4)S3(=O)=O)c2)cn1` [Example 20, (R)-3-(5-(3-(1-methyl-1H-pyrazol-4-yl)phenyl)-1,1-dioxido-1,2,5-thiadiazolidin-2-yl)pyrrolidine-1-corbonitrile], which IC50 is on record?
**A.** < 100 nM

**Q.** Which IC50 does the source give for `Cn1cc(-c2cccc(N3CCCN([C@@H]4CCN(C#N)C4)S3(=O)=O)c2)cn1` [Example 21, (R)-3-(6-(3-(1-methyl-1H-pyrazol-4-yl)phenyl)-1,1-dioxido-1,2,6-thiadiazinan-2-yl)pyrrolidine-1-carbonitrile] here?
**A.** 100 to 1000 nM

**Q.** How did the IC50 turn out when `N#CN1CC[C@@H](N2CCN(c3ccc(N4CCOCC4)cc3)S2(=O)=O)C1` [Example 22, (R)-3-(5-(4-morpholinophenyl)-1,1-dioxido-1,2,5-thiadiazolidin-2-yl)pyrrolidine-1-carbonitrile] was run?
**A.** 100 to 1000 nM

**Q.** With `N#CN1CC[C@@H](N2CCN(c3cccc(N4CCOCC4)c3)S2(=O)=O)C1` [Example 24, (R)-3-(5-(3-morpholinophenyl)-1,1-dioxido-1,2,5-thiadiazolidin-2-yl)pyrrolidine-1-carbonitrile] as the molecule, how does the IC50 read?
**A.** < 100 nM

**Q.** `N#CN1CC[C@@H](N2CCCN(c3cccc(N4CCOCC4)c3)S2(=O)=O)C1` [Example 25, (R)-3-(6-(3-morpholinophenyl)-1,1-dioxido-1,2,6-thiadiazinan-2-yl)pyrrolidine-1-carbonitrile] was tested. Which IC50 did it give?
**A.** 1000 to 10000 nM

**Q.** How did the IC50 turn out when `N#CN1CC[C@@H](N2CCN(c3cc(-c4ccccc4)no3)S2(=O)=O)C1` [Example 26, (R)-3-(1,1-dioxido-5-(3-phenylisoxazol-5-yl)-1,2,5-thiadiazolidin-2-yl)pyrrolidine-1-carbonitrile] was run?
**A.** < 100 nM

**Q.** `N#CN1CC[C@@H](N2CCCN(c3cc(-c4ccccc4)no3)S2(=O)=O)C1` [Example 27, (R)-3-(1,1-dioxido-6-(3-phenylisoxazol-5-yl)-1,2,6-thiadiazinan-2-yl)pyrrolidine-1-carbonitrile] was tested. Which IC50 did it give?
**A.** 100 to 1000 nM

**Q.** How did the IC50 turn out when `N#CN1CC[C@@H](N2CCN(c3cc(-c4ccccc4)n[nH]3)S2(=O)=O)C1` [Example 28, (R)-3-(1,1-dioxido-5-(3-phenyl-1H-pyrazol-5-yl)-1,2,5-thiadiazolidin-2-yl)pyrrolidine-1-carbonitrile] was run?
**A.** < 100 nM

**Q.** With `N#CN1CC[C@@H](N2CCCN(c3cc(-c4ccccc4)n[nH]3)S2(=O)=O)C1` [Example 29, (R)-3-(1,1-dioxido-6-(3-phenyl-1H-pyrazol-5-yl)-l,2,6-thiadiazinan-2-yl)pyrrolidine-1-carbonitrile] as the molecule, how does the IC50 read?
**A.** 100 to 1000 nM

**Q.** For `N#CN1CC[C@@H](NS(=O)(=O)N2CCCn3nc(-c4ccccc4)cc32)C1` [Example 30, (R)—N-(1-cyanopyrrolidin-3-yl)-2-phenyl-6,7-dihydropyrazolo[1,5-a]pyrimidine-4(5H)-sulfonamide], which IC50 is on record?
**A.** 100 to 1000 nM

**Q.** For `N#CN1CC[C@H](N2CCN(c3ccccc3)S2(=O)=O)C1` [Example 31, (S)-3-(1,1-dioxido-5-phenyl-1,2,5-thiadiazolidin-2-yl)pyrrolidine-1-carbonitrile], which IC50 is on record?
**A.** 1000 to 10000 nM

**Q.** With `N#CN1CC[C@H](N2CCN(c3ccc(-c4ccncc4)cc3)S2(=O)=O)C1` [Example 32, (S)-3-(1,1-dioxido-5-(4-(pyridin-4-yl)phenyl)-1,2,5-thiadiazolidin-2-yl)pyrrolidine-1-carbonitrile] as the molecule, how does the IC50 read?
**A.** < 100 nM

**Q.** How did the IC50 turn out when `N#CN1CC[C@H](N2CCN(c3cccc(-c4ccncc4)c3)S2(=O)=O)C1` [Example 33, (S)-3-(1,1-dioxido-5-(3-(pyridin-4-yl)phenyl)-1,2,5-thiadiazolidin-2-yl)pyrrolidine-l-carbonitrile] was run?
**A.** < 100 nM

**Q.** With `N#CN1CC[C@H](N2CCN(c3ccc(-c4ccccc4)cc3)S2(=O)=O)C1` [Example 34] as the molecule, how does the IC50 read?
**A.** < 100 nM

**Q.** With `N#CN1CC[C@H](N2CCN(c3cccc(-c4ccccc4)c3)S2(=O)=O)C1` [Example 35, (S)-3-(5-([1,1′-biphenyl]-3-yl)-l,1-dioxido-1,2,5-thiadiozolidin-2-yl)pyrrolidine-1-carbonitrile] as the molecule, how does the IC50 read?
**A.** < 100 nM

**Q.** For `N#CN1CC[C@H](N2CCN(c3cccc(-c4ccccc4)n3)S2(=O)=O)C1` [Example 36, (S)-3-(1,1-dioxido-5-(6-phenylpyridin-2-yl)-1,2,5-thiadiazolidin-2-yl)pyrrolidine-1-carbonitrile], which IC50 is on record?
**A.** < 100 nM

**Q.** For `N#CN1CCC(N2CCN(c3ccccc3)S2(=O)=O)C1` (stereo not shown) [Example 37, 3-(1,1-dioxido-5-phenyl-1,2,5-thiadiazolidin-2-yl)pyrrolidine-1-carbonitrile], which IC50 is on record?
**A.** 100 to 1000 nM

**Q.** `N#CN1CCC(N2CCCN(c3ccccc3)S2(=O)=O)C1` (stereo not shown) [Example 38, 3-(1,1-dioxido-6-phenyl-1,2,6-thiadiazinan-2-yl)pyrrolidine-1-carbonitrile] was tested. Which IC50 did it give?
**A.** 100 to 1000 nM

**Q.** Which IC50 does the source give for `C[C@H]1CN(C#N)C[C@@H]1N1CCN(c2ccc(-c3ccccc3)cc2)S1(=O)=O` [Example 39, (3R,4S)-3-(5-([1,1′-biphenyl]-4-yl)-1,1-dioxido-1,2,5-thiadiazolidin-2-yl)-4-methylpyrrolidine-1-carbonitrile] here?
**A.** < 100 nM

**Q.** For `C[C@H]1CN(C#N)C[C@@H]1N1CCN(c2cccc(N3CCN(C)CC3)c2)S1(=O)=O` [Example 40, (3S,4R)-3-methyl-4-(5-(3-(4-methylpiperazin-1-yl)phenyl)-1,1-dioxido-1,2,5-thiadiazolidin-2-yl)pyrrolidine-1-carbonitrile], which IC50 is on record?
**A.** 100 to 1000 nM
